Measurements from ChEMBL document CHEMBL3397009, “Synthesis and biological evaluation of aryl isoxazole derivatives as metabotropic glutamate receptor 1 antagonists: a potential treatment for neuropathic pain” (Bioorg Med Chem Lett, 2015).
Active and inactive are the calls of the source.

Legend:
[1] = molecular target: Metabotropic glutamate receptor 5 (Homo sapiens) (UniProt P41594); assay: Antagonist activity against human mGluR5 expressed in HEK cells assessed as inhibition of L-glutamate-induced intracellular calcium levels at 1 uM after 18 hrs; format: functional, cell-based; conditions: HEK293
Chain of Metabotropic glutamate receptor 5 (Homo sapiens) (P41594 21-1212 limits assumed): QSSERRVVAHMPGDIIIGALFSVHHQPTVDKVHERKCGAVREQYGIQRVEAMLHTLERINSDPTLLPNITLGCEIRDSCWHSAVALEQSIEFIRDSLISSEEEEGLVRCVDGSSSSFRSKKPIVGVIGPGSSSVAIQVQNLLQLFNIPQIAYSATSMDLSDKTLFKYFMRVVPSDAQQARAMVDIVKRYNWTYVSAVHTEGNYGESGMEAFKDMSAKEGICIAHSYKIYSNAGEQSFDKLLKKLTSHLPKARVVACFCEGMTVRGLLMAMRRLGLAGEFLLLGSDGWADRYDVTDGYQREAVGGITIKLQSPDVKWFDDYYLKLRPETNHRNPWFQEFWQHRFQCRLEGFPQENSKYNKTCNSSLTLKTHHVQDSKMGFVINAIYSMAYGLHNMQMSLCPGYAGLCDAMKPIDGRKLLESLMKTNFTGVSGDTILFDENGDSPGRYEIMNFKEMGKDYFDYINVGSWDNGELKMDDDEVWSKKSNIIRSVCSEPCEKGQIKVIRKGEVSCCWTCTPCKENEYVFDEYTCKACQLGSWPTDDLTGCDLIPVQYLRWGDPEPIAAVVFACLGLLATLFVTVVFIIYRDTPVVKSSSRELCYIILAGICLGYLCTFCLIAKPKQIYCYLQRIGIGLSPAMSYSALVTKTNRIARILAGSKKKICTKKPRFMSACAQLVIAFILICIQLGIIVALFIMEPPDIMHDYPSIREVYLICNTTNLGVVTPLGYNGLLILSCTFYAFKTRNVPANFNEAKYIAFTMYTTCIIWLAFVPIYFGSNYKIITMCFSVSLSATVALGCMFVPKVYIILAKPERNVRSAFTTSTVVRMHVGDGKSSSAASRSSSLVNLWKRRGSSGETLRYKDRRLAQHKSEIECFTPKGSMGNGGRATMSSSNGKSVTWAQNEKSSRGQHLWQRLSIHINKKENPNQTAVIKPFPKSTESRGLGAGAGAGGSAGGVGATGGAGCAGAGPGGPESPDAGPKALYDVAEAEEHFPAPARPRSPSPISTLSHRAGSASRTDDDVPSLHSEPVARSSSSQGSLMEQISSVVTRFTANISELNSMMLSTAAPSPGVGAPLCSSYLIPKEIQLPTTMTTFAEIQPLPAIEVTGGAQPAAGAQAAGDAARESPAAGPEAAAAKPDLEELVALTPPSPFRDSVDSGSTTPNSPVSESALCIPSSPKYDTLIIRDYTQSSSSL

[2] = molecular target: Metabotropic glutamate receptor 5 (Homo sapiens) (UniProt P41594); assay: Antagonist activity against human mGluR5 expressed in HEK cells assessed as inhibition of L-glutamate-induced intracellular calcium levels at 10 uM after 18 hrs; format: functional, cell-based; conditions: HEK293
[3] = molecular target: Metabotropic glutamate receptor 1 (Homo sapiens) (UniProt Q13255); assay: Antagonist activity against human mGluR1 expressed in HEK cells assessed as inhibition of L-glutamate-induced intracellular calcium levels at 10 uM after 18 hrs; format: functional, cell-based; conditions: HEK293
Chain of Metabotropic glutamate receptor 1 (Homo sapiens) (Q13255 19-1194 limits assumed): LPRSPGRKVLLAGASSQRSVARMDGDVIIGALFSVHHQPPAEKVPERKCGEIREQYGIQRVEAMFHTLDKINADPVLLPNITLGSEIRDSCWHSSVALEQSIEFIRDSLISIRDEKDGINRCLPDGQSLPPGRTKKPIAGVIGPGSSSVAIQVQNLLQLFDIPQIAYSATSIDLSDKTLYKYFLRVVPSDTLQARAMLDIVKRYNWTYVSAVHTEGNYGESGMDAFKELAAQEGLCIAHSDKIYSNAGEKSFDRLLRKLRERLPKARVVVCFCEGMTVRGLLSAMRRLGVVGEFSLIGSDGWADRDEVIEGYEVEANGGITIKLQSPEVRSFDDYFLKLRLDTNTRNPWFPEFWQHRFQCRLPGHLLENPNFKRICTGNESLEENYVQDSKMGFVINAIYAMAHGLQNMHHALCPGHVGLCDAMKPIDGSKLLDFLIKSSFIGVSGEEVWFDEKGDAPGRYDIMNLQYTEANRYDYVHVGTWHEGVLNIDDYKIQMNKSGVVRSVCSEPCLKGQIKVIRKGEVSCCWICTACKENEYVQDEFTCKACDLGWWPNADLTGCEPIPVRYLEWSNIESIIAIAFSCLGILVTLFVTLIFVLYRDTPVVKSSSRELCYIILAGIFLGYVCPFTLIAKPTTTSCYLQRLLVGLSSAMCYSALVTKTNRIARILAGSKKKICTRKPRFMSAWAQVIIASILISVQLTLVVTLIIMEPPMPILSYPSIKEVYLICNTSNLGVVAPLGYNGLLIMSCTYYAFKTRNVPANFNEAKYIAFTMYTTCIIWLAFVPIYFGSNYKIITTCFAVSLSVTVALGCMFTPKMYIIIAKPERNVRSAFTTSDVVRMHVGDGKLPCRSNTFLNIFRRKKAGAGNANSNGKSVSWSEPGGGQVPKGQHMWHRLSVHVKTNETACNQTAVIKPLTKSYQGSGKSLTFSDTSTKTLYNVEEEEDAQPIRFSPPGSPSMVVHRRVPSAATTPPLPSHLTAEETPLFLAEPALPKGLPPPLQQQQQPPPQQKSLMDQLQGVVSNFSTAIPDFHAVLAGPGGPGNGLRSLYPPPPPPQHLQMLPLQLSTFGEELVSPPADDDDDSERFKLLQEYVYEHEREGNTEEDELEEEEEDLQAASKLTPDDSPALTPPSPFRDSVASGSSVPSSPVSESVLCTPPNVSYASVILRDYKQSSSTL

[4] = molecular target: Metabotropic glutamate receptor 1 (Homo sapiens) (UniProt Q13255); assay: Antagonist activity against human mGluR1 expressed in HEK cells assessed as inhibition of L-glutamate-induced intracellular calcium levels at 1 uM after 18 hrs; format: functional, cell-based; conditions: HEK293
Rattus norvegicus [5] = assay: Analgesic activity in rat model of spinal nerve ligation-induced neuropathic pain assessed as reduction in cold allodynia by measuring paw withdrawal in response to acetone application at 100 mg/kg, po administered on day 14 after ligation surgery and measured 3 hrs post dose; format: functional, organism-based; set-up: dose 100 mg/kg
Rattus norvegicus [6] = assay: Analgesic activity in rat model of spinal nerve ligation-induced neuropathic pain assessed as reduction in mechanical threshold for paw withdrawal at 100 mg/kg, po administered on day 14 after ligation surgery and measured 3 hrs post dose by Von Frey filaments based method; format: functional, organism-based; set-up: dose 100 mg/kg
CYP2D6 = CYP2D6 (Homo sapiens, UniProt P10635); assay: Inhibition of CYP2D6 (unknown origin) assessed as remaining enzyme activity at 10 uM; format: ADME; conditions: read-out: Activity
Chain of CYP2D6 (P10635 whole entry): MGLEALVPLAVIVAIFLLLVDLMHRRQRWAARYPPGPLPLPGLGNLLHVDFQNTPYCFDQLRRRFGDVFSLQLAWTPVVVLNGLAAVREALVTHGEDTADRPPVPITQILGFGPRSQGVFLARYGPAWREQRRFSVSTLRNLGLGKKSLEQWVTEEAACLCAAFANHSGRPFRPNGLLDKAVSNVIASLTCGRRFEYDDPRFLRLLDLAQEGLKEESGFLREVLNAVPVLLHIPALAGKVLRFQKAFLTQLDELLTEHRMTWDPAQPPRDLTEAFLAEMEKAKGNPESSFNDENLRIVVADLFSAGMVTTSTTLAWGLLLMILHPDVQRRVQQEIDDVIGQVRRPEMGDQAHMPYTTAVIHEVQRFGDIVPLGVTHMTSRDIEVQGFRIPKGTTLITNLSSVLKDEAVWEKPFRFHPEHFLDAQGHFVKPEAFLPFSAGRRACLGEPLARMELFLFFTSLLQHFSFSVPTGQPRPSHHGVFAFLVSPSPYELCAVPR

CYP2C9 = CYP2C9 (Homo sapiens, UniProt P11712); assay: Inhibition of CYP2C9 (unknown origin) assessed as remaining enzyme activity at 10 uM; format: ADME; conditions: read-out: Activity
Chain of CYP2C9 (P11712 whole entry): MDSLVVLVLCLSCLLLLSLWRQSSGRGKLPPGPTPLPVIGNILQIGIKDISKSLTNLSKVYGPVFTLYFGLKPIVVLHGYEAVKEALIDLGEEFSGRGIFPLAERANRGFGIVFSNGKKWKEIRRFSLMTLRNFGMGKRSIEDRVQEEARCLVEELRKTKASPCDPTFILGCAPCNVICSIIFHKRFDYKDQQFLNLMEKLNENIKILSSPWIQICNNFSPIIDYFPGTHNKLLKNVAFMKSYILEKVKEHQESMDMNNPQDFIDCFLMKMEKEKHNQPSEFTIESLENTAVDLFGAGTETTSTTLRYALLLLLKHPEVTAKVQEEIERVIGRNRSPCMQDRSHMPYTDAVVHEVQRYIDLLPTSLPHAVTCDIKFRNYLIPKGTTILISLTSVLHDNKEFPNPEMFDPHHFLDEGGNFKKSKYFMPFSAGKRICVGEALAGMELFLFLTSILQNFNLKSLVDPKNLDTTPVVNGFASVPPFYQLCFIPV

CYP1A2 = molecular target: T1, CYP1A2 (Homo sapiens, UniProt P05177); assay: Inhibition of CYP1A2 (unknown origin) assessed as remaining enzyme activity at 10 uM; format: ADME; conditions: read-out: Activity
T1 sequence (P05177 whole entry): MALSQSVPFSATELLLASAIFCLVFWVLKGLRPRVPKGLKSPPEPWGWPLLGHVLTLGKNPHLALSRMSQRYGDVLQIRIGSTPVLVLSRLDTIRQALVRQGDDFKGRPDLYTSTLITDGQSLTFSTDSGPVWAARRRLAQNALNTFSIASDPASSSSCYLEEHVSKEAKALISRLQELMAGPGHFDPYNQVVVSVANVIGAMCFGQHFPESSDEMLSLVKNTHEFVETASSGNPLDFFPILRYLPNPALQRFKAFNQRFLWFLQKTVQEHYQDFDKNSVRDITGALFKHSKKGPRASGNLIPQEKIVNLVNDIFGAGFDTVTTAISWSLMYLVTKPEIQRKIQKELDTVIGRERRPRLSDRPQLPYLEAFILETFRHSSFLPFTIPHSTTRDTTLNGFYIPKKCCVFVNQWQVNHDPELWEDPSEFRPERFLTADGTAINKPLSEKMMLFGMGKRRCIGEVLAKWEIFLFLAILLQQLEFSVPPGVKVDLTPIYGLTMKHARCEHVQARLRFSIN

CYP2C19 = CYP2C19 (Homo sapiens, UniProt P33261); assay: Inhibition of CYP2C19 (unknown origin) assessed as remaining enzyme activity at 10 uM; format: ADME; conditions: read-out: Activity
Chain of CYP2C19 (P33261 whole entry): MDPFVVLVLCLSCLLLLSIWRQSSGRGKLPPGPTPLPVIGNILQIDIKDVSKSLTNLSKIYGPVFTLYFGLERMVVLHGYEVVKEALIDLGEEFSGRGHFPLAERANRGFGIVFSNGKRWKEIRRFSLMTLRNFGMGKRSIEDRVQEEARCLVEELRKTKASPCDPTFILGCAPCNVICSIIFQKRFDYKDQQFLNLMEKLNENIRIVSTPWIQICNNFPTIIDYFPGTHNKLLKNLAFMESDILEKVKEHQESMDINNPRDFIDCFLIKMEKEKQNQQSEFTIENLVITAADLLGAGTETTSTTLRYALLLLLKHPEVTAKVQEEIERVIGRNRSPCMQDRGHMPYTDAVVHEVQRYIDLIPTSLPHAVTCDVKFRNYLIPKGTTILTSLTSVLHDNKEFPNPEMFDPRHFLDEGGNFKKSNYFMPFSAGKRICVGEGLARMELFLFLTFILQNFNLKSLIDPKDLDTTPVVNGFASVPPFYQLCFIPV

CYP3A4 = CYP3A4 (Homo sapiens, UniProt P08684); assay: Inhibition of CYP3A4 (unknown origin) assessed as remaining enzyme activity at 10 uM; format: ADME; conditions: read-out: Activity
Chain of CYP3A4 (P08684 whole entry): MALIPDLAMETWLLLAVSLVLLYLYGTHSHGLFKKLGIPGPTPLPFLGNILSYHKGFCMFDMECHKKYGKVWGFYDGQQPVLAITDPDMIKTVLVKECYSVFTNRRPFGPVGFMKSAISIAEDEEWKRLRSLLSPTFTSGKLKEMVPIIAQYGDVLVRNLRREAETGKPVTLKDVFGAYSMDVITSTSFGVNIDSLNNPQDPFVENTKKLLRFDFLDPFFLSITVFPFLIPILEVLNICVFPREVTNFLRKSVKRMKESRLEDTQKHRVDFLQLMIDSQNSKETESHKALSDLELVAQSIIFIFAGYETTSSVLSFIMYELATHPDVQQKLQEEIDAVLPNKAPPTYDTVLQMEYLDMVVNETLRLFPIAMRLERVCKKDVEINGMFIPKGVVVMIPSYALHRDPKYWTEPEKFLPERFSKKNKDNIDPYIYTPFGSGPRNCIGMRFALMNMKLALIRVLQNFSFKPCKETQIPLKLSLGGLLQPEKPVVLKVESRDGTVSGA

[7] = molecular target: Voltage-gated inwardly rectifying potassium channel KCNH2 (Homo sapiens, UniProt Q12809); assay: Inhibition of human ERG

SMILES	inhibition [1]	inhibition [2]	inhibition [3]	inhibition [4]	Activity (Rattus norvegicus [5])	Activity (Rattus norvegicus [6])	activity at 10 µM (CYP2D6)	activity at 10 µM (CYP2C9)	activity at 10 µM (CYP1A2)	activity at 10 µM (CYP2C19)	activity at 10 µM (CYP3A4)	IC50 [7]
COc1ccc(-c2noc(-c3ccc4c(c3)CN(C(C)C)C4=O)c2C)cn1	33.5%	30.8%	46.5%	49.1%	–	–	–	–	–	–	–	–
CC(C)N1Cc2cc(-c3cc(-c4ccc(F)cc4F)no3)ccc2C1=O	17.7%	13.4%	36.5%	39.8%	–	–	–	–	–	–	–	–
CC(C)N1C(=O)c2ccc(-c3cc(-c4ccc(Cl)nc4)no3)cc21	16.1%	10.1%	7.77%	12.3%	–	–	–	–	–	–	–	–
NCC1(CC(=O)O)CCCCC1	–	–	–	–	Active	Active	–	–	–	–	–	–
Cc1ccc(-c2cc(-c3ccc4c(c3)CN(C(C)C)C4=O)on2)cc1	21.8%	15%	25.1%	37.4%	–	–	–	–	–	–	–	–
Cc1ccc(-c2cc(-c3ccc4c(c3)CN(C(C)C)C4=O)on2)cn1	14%	34.4%	62.6%	4.53%	–	–	–	–	–	–	–	–
COc1ccc(-c2cc(-c3ccc4c(c3)N(C(C)C)C4=O)on2)cc1	13.6%	15.9%	2.44%	11.3%	–	–	–	–	–	–	–	–
CC(C)N1Cc2cc(-c3cc(-c4ccccc4F)no3)ccc2C1=O	21.9%	22.5%	88.6%	56.3%	–	–	45.8%	39.8%	42.5%	58.4%	107%	–
CC(C)N1C(=O)c2ccc(-c3cc(-c4ccccc4F)no3)cc21	14.9%	18.3%	91.1%	68%	inactive	inactive	57.1%	32%	98.7%	33.2%	120%	–
COc1ccc(-c2cc(-c3ccc4c(c3)CN(C(C)C)C4=O)on2)cc1	15.4%	15.1%	35.1%	41%	–	–	–	–	–	–	–	–
COc1ccc(-c2noc(-c3ccc4c(c3)N(C(C)C)C4=O)c2C)cc1	–	–	13.7%	9.68%	–	–	–	–	–	–	–	–
Cc1c(-c2ccc(F)cc2)noc1-c1ccc2c(c1)CN(C(C)C)C2=O	8.16%	18.7%	62.8%	38.4%	–	–	–	–	–	–	–	–
Cc1c(-c2ccc(Cl)cc2)noc1-c1ccc2c(c1)CN(C(C)C)C2=O	11.7%	23.4%	61.6%	30.7%	–	–	–	–	–	–	–	–
CC(C)N1Cc2cc(-c3cc(-c4ccc(Cl)nc4)no3)ccc2C1=O	22.7%	36.5%	47.1%	45.4%	Active	Active	91.3%	104%	92.6%	56.6%	94.5%	40 µM
Cc1c(-c2ccc3c(c2)CN(C(C)C)C3=O)nnn1-c1ccc(F)cc1F	–	–	93.1%	92.5%	Active	Active	–	–	–	–	–	–
COc1ccc(-c2cc(-c3ccc4c(c3)CN(C(C)C)C4=O)on2)cn1	5.29%	29.2%	59.6%	16.6%	Active	Active	87.5%	91.8%	90.7%	85.9%	95.6%	12 µM
CC(C)N1Cc2cc(-c3cc(-c4cccnc4F)no3)ccc2C1=O	–	–	42.3%	23.4%	–	–	–	–	–	–	–	–
CC(C)N1C(=O)c2ccc(-c3cc(-c4ccc(F)cc4F)no3)cc21	–	–	17.3%	11.7%	–	–	–	–	–	–	–	–
CC(C)N1C(=O)c2ccc(-c3cc(-c4ccc(F)cc4)no3)cc21	1.82%	34%	50.4%	12.8%	–	–	–	–	–	–	–	–
CC(C)N1C(=O)c2ccc(-c3cc(-c4ccc(Cl)cc4)no3)cc21	12.2%	10.3%	33.9%	16.4%	–	–	–	–	–	–	–	–
Cc1c(-c2ccc(Cl)nc2)noc1-c1ccc2c(c1)CN(C(C)C)C2=O	22.2%	26.3%	56.9%	47.1%	–	–	–	–	–	–	–	–
Cc1c(-c2ccc(F)cc2F)noc1-c1ccc2c(c1)CN(C(C)C)C2=O	7.95%	26.3%	87.6%	31.9%	–	–	104%	2.55%	89.6%	59.2%	98%	–
Cc1c(-c2ccc(Cl)cc2)noc1-c1ccc2c(c1)N(C(C)C)C2=O	9.46%	28.7%	49.1%	20.3%	–	–	–	–	–	–	–	–
